Reference: paper PMC5445283, “Selection and characterization of alanine racemase inhibitors against Aeromonas hydrophila” (BMC Microbiology, 2017)
In brackets after ≈: the same amount, converted by molar mass. Several values for one entry are separate records, joined by “and”; a condition that tells them apart may be missing. Identical values can stand only once. Entries after “also recorded” stand apart in the source; their conditions may differ. Counter-ions that a name gives are not always drawn. Like-named read-outs stand apart in the source and are kept apart here.

Columns and labels:
Caco-2 cells = tested on: Caco-2 cells; design: method as in PMID 22146584; details: cited from earlier work
A. hydrophila = test: Antimicrobial susceptibility test, MIC by microdilution; format: cell-based, Aeromonas hydrophila; details: for MIC: Aeromonas hydrophila, read-out: MIC against A.hydrophila; for growth inhibition of A. hydrophila, in words: screen for antimicrobial activity
Description: (§1) A. hydrophila was cultured for 18 h, washed with PBS (pH 7.2), and adjusted to an OD600 value of 0.5. Next, the culture was diluted tenfold five times, and aliquots were spread on LB agar in triplicate to determine the number of colony-forming units (CFU)/ml.
(§2) The minimum inhibitory concentration (MIC) of the chemical compounds against A. hydrophila was determined using the microdilution method in accordance with the guidelines of the Clinical and Laboratory Standards Institute, document M31-A3 [16], following the method described by Dal Pozzo et al.. Compounds were diluted in DMSO at concentrations of 80, 40, 20, or 10 μg/ml. Appropriate controls were included in all tests. DCS is a naturally occurring antibacterial compound that targets alanine racemase involved in peptidoglycan synthesis. DCS was used as a positive control ([…]), DMSO solvent was used as a negative control for growth inhibition and DMSO alone was used as the blank control. All tests were performed in triplicate. The inoculum was prepared in LB culture medium (1 × 10^8 CFU/ml; OD600 = 0.3) and cultured at 30 °C/20 h. The inoculum (100 μl; 1 × 10^5 CFU) was added to each well containing compounds. The microplates were incubated at 30 °C for 20 h.

A. hydrophila Δalr-2 = format: cell-based, Aeromonas hydrophila; details: for MIC against A.hydrophila Δalr-2: average values with standard deviations in parentheses, NC: non calculable as the values are too high
Description: A. hydrophila HBNUAh01 isolated from infected Paralichthys olivaceus and an A. hydrophila alr-2 knockout mutant were used in this study. Escherichia coli BL-21(DE3) cells were used for protein expression. The pET-25b-alr2 plasmid was used for protein expression. The A. hydrophila and E. coli strains were cultured in Luria-Bertani (LB) medium at 30 °C and 37 °C, respectively. For plasmid selection, 0.5 mmol/l ampicillin (AMP, Sigma–Aldrich Inc., USA) was added to the LB medium for experiments with E. coli.
as §1, §2

[1] = tested on: D-amino acid oxidase (DAAO) and horseradish peroxidase (HRP); test: Assay interference counter screen (second step of the assay); format: biochemical; details: for inhibition of second-step enzymes / assay interference, in words: HRP and DAAO, within a concentration of 50 μM; for IC50: DAAO/HRP reaction, 10 μM D-ala as substrate, read-out: IC50 on the enzymes in the second step (counter screen)
Description: To eliminate the inhibitory effects of the compounds on DAAO and HRP, a counter screening assay was performed as described above. The first-step assay mixtures without alanine racemase and L-alanine were added to each test well, followed by the addition of a twofold dilution series (in DMSO) of the inhibitors to the sample test wells, and finally, the addition of DMSO to the blank control wells. Then, DMSO was added to each well to obtain reaction mixtures at a final volume of 100 μl.
Second, the D-amino acid oxidase reaction mixture was prepared using 10 μM D-ala as the substrate. The control and control blank for the enzyme assay was prepared with or without 10 μM D-ala and absorbance was measured at 550 nm.

alanine racemase Alr-2 [2] = molecular target: T1, alanine racemase Alr-2 (Aeromonas hydrophila, UniProt A0KL98); test: biochemical
Description: Alanine racemase activity was measured at room temperature in the L → D direction using a spectrophotometric assay. The assay was modified by varying the volume to 100 μl and dividing it into two steps (Fig. 1).
The first step (F1) is the production of the D-form amino acids. The optimized enzyme assay reaction mixture consisted of 10 μM PLP, 12.5 mM of NaHCO3-NaOH buffer (pH 11), and 50 mM L-alanine and alanine racemase. A total of 100 μl of this reaction mixture was added to the wells of a 96-well plate. After incubation at 35 °C for 10 min, the reaction was terminated by adding 12.5 μl of 2 M HCl, and the incubation was continued for 2 min on ice. The reaction mixture was centrifuged at 10,000 RPM, for 10 min at 4 °C, and 10 μl of 2 M NaOH was added to neutralize the reaction mixture. The second step (F2) is the conversion of D-alanine to α-keto acids using D-amino acid oxidase (DAAO). The formation of H2O2 from this reaction can be quantified using horseradish peroxidase (HRP) at 550 nm. The DAAO reaction mixture contained 200 mM of Tris-HCl (pH 8.0), 0.1 mg/ml 4-aminoantipyrine (AAP), 0.1 mg/ml N-ethyl-N-(2-hydroxy-3-sulfopropyl)-m-toluidine sodium salt (TOOS), 2 units of HRP, 0.1 unit of DAAO and D-form amino acid solution in a final volume of 100 μl. The negative control for the enzyme assay was prepared using the same procedure but without enzyme. After incubating at 37 °C for 30 min, the absorbance was measured at 550 nm using a Spectra MAX 190 microplate reader (Molecular Devices Corp., USA). One unit (U) of enzyme was defined as the amount of purified enzyme that catalyzed the formation of 1 μmol of D-alanine from L-alanine per minute.
Each well (sample, control, and their blanks) contained the screening assay reaction mixture of 10 μM PLP and 12.5 mM NaHCO3-NaOH buffer (pH 11). Next, 4 μl of test substance (small molecular compounds or natural product extracts) was added to the sample and sample blank test tubes. Finally, […] alanine racemase was added to the sample and control test tubes while the same volume of DMSO was added to the sample blank and control blank test tubes. After incubation at 4 °C for 30 min, 50 mM L-alanine was added to the sample and control test wells while DMSO was added to the sample blank and control blank test wells to obtain a final volume of 100 μl. The control and control blank were defined as 100% and 0% of enzyme activity. The reaction was then carried out as described for the alanine racemase assay. The assay is divided into two steps: absorbance was measured at 550 nm at the end of the first (F1), and second (F2) steps and ΔF was defined as F2-F1. Inhibition activity was calculated from the following equation.
Fourfold dilution series (in DMSO) were prepared for all the compounds, and the solutions were added to the wells of a 96-well plate to yield the final inhibitory concentrations. Each concentration was tested in triplicate. The substrate was added after incubation for 30 min, and the fluorescence intensity was measured after the reaction. The positive control (D-cycloserine, DCS) was diluted in DMSO, and the negative control was prepared without adding an inhibitor to the control wells of each plate. Percentage inhibition at each inhibitor concentration was calculated with respect to the negative control. The results were analyzed using the SPSS 16.0 IBM modeler to calculate the compound concentration that causes 50% inhibition (IC50).

HeLa cells = format: cell-based; details: for cytotoxicity, in words: MTT assay, HeLa / mammalian cells; for TC50, cytotoxicity in HeLa cells: MTT, 48 h exposure, average values with standard deviations, NC: non calculable as the values are too high
Description: This assay was performed in a 96-well plate format and used HeLa cells. The cell viability was determined using 3-(4,5-dimethyl-2-thiazole)-2,5-diphenyl-2H-tetrazolium bromide (MTT, Sigma-Aldrich). Cells were seeded in culture medium in microplates (4000 cells/well) and incubated at 37 °C for 24 h before drug treatments. […] The cells were exposed to the compounds for 48 h. At the end of the incubation, the cells were exposed to MTT (0.5 mg/ml) at 37 °C for 4 h. The reduced crystals were dissolved in DMSO, and absorbance was detected at 490 nm. The […] were set as zero absorbance. The percentage of cell survival was calculated using the background-corrected absorbance as follows: Cell survival (%) = (ODexperiment/ODcontrol) × 100. The data represent the mean and standard deviation from triplicate determination.

alanine racemase Alr-2 [3] = molecular target: T1, alanine racemase Alr-2; test: Kinetics of alanine racemase inhibition (Lineweaver-Burk); format: biochemical; details: for Ki: Lineweaver-Burk analysis, read-out: inhibition constant Ki; for type (mode) of inhibition: Lineweaver-Burk profile
Description: The mode of inhibition of the enzyme by the compounds was determined as follows. The experiment was composed of three sets of reactions in which each set consisted of four concentrations of substrate in the presence of fixed amounts of alanine racemase, and three different concentrations of inhibitors were used. For homogentisic acid and hydroquinone, 0, 0.02 and 0.04 mg/ml were used. The reactions were made as described. The amount of product was determined spectrophotometrically and subsequently the standard curve was used to obtain reaction velocities. A double reciprocal plot (1/V versus 1/[S]), where V is reaction velocity and [S] is substrate concentration, was plotted. The type (mode) of inhibition of enzyme activity by the compounds was determined by analysis of the double reciprocal (Lineweaver-Burk) plot using Michaelis-Menten kinetics. The inhibition constant (K i) of the inhibitors was determined.

[4] = average values with standard deviations in parentheses, NC: non calculable as the values are too high
[5] = average values with standard deviations in parentheses, read-out: IC50 against Alr-2 with PLP

T1 sequence (A0KL98 entry or part of it): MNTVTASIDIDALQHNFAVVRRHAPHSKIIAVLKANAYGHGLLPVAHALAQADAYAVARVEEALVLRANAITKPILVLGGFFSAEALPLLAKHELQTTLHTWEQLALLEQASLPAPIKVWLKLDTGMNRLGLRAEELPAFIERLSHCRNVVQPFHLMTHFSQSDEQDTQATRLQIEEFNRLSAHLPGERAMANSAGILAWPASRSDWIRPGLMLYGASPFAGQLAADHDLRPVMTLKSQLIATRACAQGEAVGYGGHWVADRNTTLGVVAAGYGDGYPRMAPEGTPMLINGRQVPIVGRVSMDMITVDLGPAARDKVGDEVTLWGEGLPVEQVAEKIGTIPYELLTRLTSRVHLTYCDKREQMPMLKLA

In the case of `O=C1C=C2C(=CCOC2O)O1` (centres unmarked) [Compound I-2, Patulin], the “IC50 against Caco-2 cells” value (Caco-2 cells) is given as 0.62 µg/mL (≈ 4.02 µM), the MIC (A. hydrophila) is given as 20 µg/mL (≈ 130 µM) and the “growth inhibition of A. hydrophila, in words” value (“growth inhibition” below) (A. hydrophila) is given as “inhibit the growth of A. hydrophila significantly”. The “MIC against A.hydrophila Δalr-2” value (A. hydrophila Δalr-2) was 80(3.96) μg/ml, the “inhibition of second-step enzymes / assay interference, in words” value [1] was “weak inhibition” and the “inhibition of second-step enzymes / assay interference, in words” value ([1]; listed as patulin) was “No assay interference”. It also gave an IC50 (alanine racemase Alr-2 [2]) of 14.7 µM.

In the case of `O=C(O)Cc1cc(O)ccc1O` [Compound I-3, Homogentisic acid], the “cytotoxicity, in words” value (HeLa cells) is reported as “minimal cytotoxicity”, the “TC50, cytotoxicity in HeLa cells” value (HeLa cells) is reported as 157.7 μg/ml and 157.7(6.1) μg/ml and the MIC (A. hydrophila; [4]) is reported as 120 µg/mL (≈ 714 µM). For the same compound, the “growth inhibition” value (A. hydrophila) was “inhibit the growth of A. hydrophila significantly”, the “antimicrobial activity against A. hydrophila Δalr-2, in words” value (A. hydrophila Δalr-2) was “no antimicrobial activity” and the IC50 [1] was 96.1 µM. For the same compound, the “inhibition of second-step enzymes / assay interference, in words” value [1] was “No assay interference”, the Ki (alanine racemase Alr-2 [3]) was 51.7 µM and the “type (mode) of inhibition” value (alanine racemase Alr-2 [3]) was “competitive type of inhibition”. For the same compound, the IC50 (alanine racemase Alr-2 [2]) was 12.5 µM.

`CCCCC1(C)C=CC(=C2C(=O)OC(=CC(=O)O)C2=O)O1` (centres unmarked) [Compound I-4, Acetic acid,[4-(5-butyl-5-methyl-2(5H)-furanylidene)dihydro −3,5-dioxo-2(3H)-furanylidene]-(9CI)] gave an IC50 (alanine racemase Alr-2 [2]; [5]) of 8.9 µM.

`CCCOC(=O)c1cc(O)c(O)c(O)c1` [Compound I-5, Propyl Gallate] gave an IC50 (alanine racemase Alr-2 [2]; [5]) of 8.6 µM.

In the case of `Oc1ccc(O)cc1` [Compound I-6, Hydroquinone], the “cytotoxicity, in words” value (HeLa cells) is reported as “minimal cytotoxicity”, the “TC50, cytotoxicity in HeLa cells” value (HeLa cells) is reported as 122.9 μg/ml and 122.9(8.9) μg/ml and the MIC (A. hydrophila; [4]) is reported as 80 µg/mL (≈ 727 µM). For the same compound, the “growth inhibition” value (A. hydrophila) was “inhibit the growth of A. hydrophila significantly”, the “MIC against A.hydrophila Δalr-2” value (A. hydrophila Δalr-2) was 140(2.4) μg/ml and the IC50 [1] was 113 µM. For the same compound, the “inhibition of second-step enzymes / assay interference, in words” value [1] was “No assay interference”, the Ki (alanine racemase Alr-2 [3]) was 212 µM and the “type (mode) of inhibition” value (alanine racemase Alr-2 [3]) was “noncompetitive inhibitor; also recorded: noncompetitive type of inhibition”. The IC50 (alanine racemase Alr-2 [2]) was 18.5 µM.

`O=C(O)CCc1ccccc1Nc1c2ccccc2nc2ccccc12` [Compound I-7, Benzenepropanoic acid,2-(9-acridinylamino)-monohydrochloride] gave an IC50 (alanine racemase Alr-2 [2]; [5]) of 17.7 µM.

Compound `Oc1cc2c(cc1O)C1c3ccc(O)c(O)c3OCC1(O)C2` (centres unmarked) [Compound I-8, Haematoxylin] has an IC50 (alanine racemase Alr-2 [2]; [5]) of 15.6 µM.

In the case of `Oc1ccc(CC2NCCc3cc(O)c(O)cc32)cc1` (centres unmarked) [Compound I-9, Higenamine], the IC50 (alanine racemase Alr-2 [2]) is reported as 14.3 µM.

In the case of `O=c1c(O)c(-c2ccc(O)c(O)c2)oc2cc(O)cc(O)c12` [Compound I-10, Quercetin], the IC50 (alanine racemase Alr-2 [2]) is reported as 15.5 µM.

For `N[C@@H]1CON=C1O` [DCS, D-cycloserine, reference compound], the “TC50, cytotoxicity in HeLa cells” value (HeLa cells) was 149.6 μg/ml and 149.6(5.9) μg/ml, the MIC (A. hydrophila; [4]) was 25 µg/mL (≈ 245 µM) and the “MIC against A.hydrophila Δalr-2” value (A. hydrophila Δalr-2) was 50(2.9) μg/ml. For the same compound, the IC50 (alanine racemase Alr-2 [2]; [5]) was 5.4 µM.

Compound Anabellamide [Compound I-1] has an IC50 (alanine racemase Alr-2 [2]; [5]) of 6.6 µM.
